Experiments:
[1] = test system: HepG2; assay: Antiproliferative activity human HepG2 cells assessed as cell growth inhibition measured after 72 hrs by CCK8 assay; details: HepG2, 72 h
[2] = Cytotoxicity against human K562 cells assessed as cell growth inhibition measured after 72 hrs by CCK8 assay; assay type: toxicity, cell-based
[3] = Cytotoxicity against HUVEC cells assessed as cell growth inhibition measured after 72 hrs by CCK8 assay; assay type: toxicity, cell-based; details: human
[4] = test system: HL-60; assay: Antiproliferative activity against human HL-60 cells harboring wildtype FLT3 assessed as cell growth inhibition measured after 72 hrs by CCK8 assay; details: HL-60, 72 h
[5] = test system: MV4-11; assay: Antiproliferative activity against human MV4-11 cells harboring FLT3-ITD mutant assessed as cell growth inhibition measured after 72 hrs by CCK8 assay; details: MV4-11, 72 h
[6] = test system: A549; assay: Antiproliferative activity human A549 cells assessed as cell growth inhibition measured after 72 hrs by CCK8 assay; details: A549, 72 h
[7] = test system: MOLM-13; assay: Antiproliferative activity against human MOLM-13 cells harboring FLT3-ITD mutant assessed as cell growth inhibition measured after 72 hrs by CCK8 assay; details: MOLM-13, 72 h
[8] = test system: MV4-11; assay: Induction of apoptosis in human MV4-11 cells assessed as late apoptotic cells at 0.1 uM measured after 48 hrs by Annexin V-FITC/PI double staining based flow cytometric analysis (reference value: 12.03 %); assay type: functional
[9] = test system: MV4-11; assay: Induction of apoptosis in human MV4-11 cells assessed as viable cells at 0.1 uM measured after 48 hrs by Annexin V-FITC/PI double staining based flow cytometric analysis (reference value: 80.26 %); assay type: functional; details: read-out: Activity
[10] = test system: MV4-11; assay: Induction of apoptosis in human MV4-11 cells assessed as necrotic cells at 0.1 uM measured after 48 hrs by Annexin V-FITC/PI double staining based flow cytometric analysis (reference value: 5.67 %); assay type: functional
[11] = test system: MV4-11; assay: Induction of apoptosis in human MV4-11 cells assessed as early apoptotic cells at 0.1 uM measured after 48 hrs by Annexin V-FITC/PI double staining based flow cytometric analysis (reference value: 2.04 %); assay type: functional

Row | SMILES | IC50 [1] [µM] | IC50 [4] [µM] | IC50 [5] [µM] | IC50 [6] [µM] | IC50 [7] [µM] | IC50 at 72 h [2] [µM] | IC50 at 72 h [3] [µM] | Activity [8] [%] | viability at 0.1 µM [9] [%] | Activity [10] [%] | Activity [11] [%]
1 | Cc1ccc(F)c(NC(=O)Nc2ccc(-c3cccc4[nH]nc(N)c34)cc2)c1 [LINIFANIB] | 4 | 7.88 | 0.0034 | 8.34 | 0.019 | 6.96 | 4.92 | 50.7 | 33.4 | 15.38 | 0.55
2 | Cc1cc(-c2ccc(NC(=O)Nc3ccc(Cl)c(C(F)(F)F)c3)cc2)c2c(N)onc2n1 | > 10 | > 10 | 0.00089 | 7.31 | 0.0046 | 1.73 | > 10 | – | – | – | –
3 | C=CC(=O)Nc1ccc(C(=O)Nc2ccc(-c3cc(C)nc4noc(N)c34)cc2)cc1OC | > 10 | > 10 | 4.79 | > 10 | > 10 | > 10 | > 10 | – | – | – | –
4 | C=CC(=O)Nc1ccc(C(=O)Nc2ccc(-c3cc(C)nc4noc(N)c34)cc2)cc1C | 2.27 | 0.448 | 3.33 | > 10 | > 10 | 2.77 | 3.23 | – | – | – | –
5 | C=CC(=O)Nc1cccc(CC(=O)Nc2ccc(-c3cc(C)nc4noc(N)c34)cc2)c1 | > 10 | 7.39 | 1.26 | > 10 | 2.52 | > 10 | > 10 | – | – | – | –
6 | C=CC(=O)Nc1cccc(C(=O)Nc2ccc(-c3cc(C)nc4noc(N)c34)cc2)c1 | 7.62 | 3.95 | 0.348 | > 10 | 0.703 | > 10 | > 10 | – | – | – | –
7 | C=CS(=O)(=O)Nc1ccc(C(=O)Nc2ccc(-c3cc(C)nc4noc(N)c34)cc2)cc1 | > 10 | > 10 | 2.55 | > 10 | > 10 | > 10 | > 10 | – | – | – | –
8 | C=CC(=O)Nc1ccc(CC(=O)Nc2ccc(-c3cc(C)nc4noc(N)c34)cc2)cc1 | > 10 | 8.53 | 2.17 | > 10 | 6.23 | > 10 | > 10 | – | – | – | –

Now from value to molecule, other results behind:

Row | IC50 [1] [µM] | IC50 [4] [µM] | IC50 [5] [µM] | IC50 [6] [µM] | IC50 [7] [µM] | SMILES | IC50 at 72 h [2] [µM] | IC50 at 72 h [3] [µM] | Activity [8] [%] | viability at 0.1 µM [9] [%] | Activity [10] [%] | Activity [11] [%]
9 | 2.61 | 0.307 | 0.675 | 5.54 | 3.76 | C=CC(=O)Nc1ccc(C(=O)Nc2ccc(-c3cc(C)nc4noc(N)c34)cc2)cc1Cl | 7.52 | 2.65 | – | – | – | –
10 | > 10 | > 10 | > 10 | > 10 | > 10 | C=CC(=O)N1CCC(C(=O)Nc2ccc(-c3cc(C)nc4noc(N)c34)cc2)CC1 | > 10 | > 10 | – | – | – | –
11 | > 10 | > 10 | 1.34 | > 10 | 7.42 | C=CC(=O)Nc1ccc(CCC(=O)Nc2ccc(-c3cc(C)nc4noc(N)c34)cc2)cc1 | > 10 | > 10 | – | – | – | –
12 | > 10 | > 10 | > 10 | > 10 | > 10 | C=CC(=O)Nc1ccc(C(=O)Nc2ccc(-c3cc(C)nc4noc(N)c34)cc2)cc1F | > 10 | > 10 | – | – | – | –
13 | 2.68 | 0.601 | 1.22 | > 10 | 7.35 | C=CC(=O)Nc1ccc(C(=O)Nc2ccc(-c3cc(C)nc4noc(N)c34)cc2)cc1Br | > 10 | > 10 | – | – | – | –
14 | > 10 | 3.68 | 9.18 | > 10 | 6.9 | C=CC(=O)Nc1ccc(C(=O)Nc2ccc(-c3cc(C)nc4noc(N)c34)cc2)c(C(F)(F)F)c1 | > 10 | > 10 | – | – | – | –
15 | > 10 | 4.4 | 1.59 | > 10 | 4.78 | C=CC(=O)Nc1ccc(C(=O)Nc2ccc(-c3cc(C)nc4noc(N)c34)cc2)cc1 | > 10 | > 10 | – | – | – | –
16 | > 10 | > 10 | 1.04 | > 10 | 2.27 | C=CC(=O)Nc1cccc(NC(=O)Nc2ccc(-c3cc(C)nc4noc(N)c34)cc2)c1 | > 10 | > 10 | – | – | – | –
